Measurements published in patent US8394832B2, “Methods and compositions using immunomodulatory compounds for the treatment of immunodeficiency disorders” (Celgene Corporation, priority 2004, dated 2013).

What was measured:
[1] = tested on: CD40; assay: FACS analysis of CD40 expression on B cells; assay type: cell-based, human
Method: Human buffy coat (50 ml) was diluted with 50 ml sterile PBS (Ca^++, Mg^++ free), and mixed gently. A 25 ml aliquot of diluted buffy coat was transferred to each 50 ml centrifuge tube, and Histopaque-1077 (14 ml, #1077-1, Sigma) was gently layered into the bottom of the tube. The sample was centrifuged at 2,000 rpm for 30 min at room temperature. The interface containing mononuclear cells was transferred into 50 ml centrifuge tube, and washed once with PBS (1200 rpm, 5 min). The supernatant was discarded. Cell pellet was resuspended in Miltenyi buffer. Anti-CD19^+ microbeads were added to the suspension (10^7 cells in 80 μl of buffer, 20 μl antibody beads for 10^7 cells) and incubated for 15 min at 4° C. Cell pellet was washed once and resuspended in 1 ml Miltenyi buffer. The cell suspension was added to the magnetic column, washed with 10 ml Miltenyi buffer in the column. CD19^+ cells are released by 1 ml Miltenyi Buffer without magnetic field. CD19^+ cells were washed twice with RPMI complete medium. B cells (2×10^5) were plated in 96 well plate. […]
In addition to the suppression of IL-4 induced proliferation, CD40+IL-4 induced HLA-DR expression was also examined. B cells were treated by 1,3-dioxo-(2,6-dioxopiperidin-3-yl)-4-aminoisoindoline with CD40L+IL-4 for 72 hours, and the cell surface expression markers CD40 and HLA-DR were measured by FACS. […]

[2] = tested on: IgE synthesis; assay: IgE ELISA of human PBMC treated with anti CD40 and IL-4 for three weeks; assay type: cell-based; conditions: 504 h, human PBMCs in presence of CD40+IL-4 for three weeks (FIGS. 11A and B), read-out: IC50 of inhibition of IgE synthesis
Method: Human PBMCs (1×10^6/ml) were treated with immunomodulatory compounds in presence of anti-CD40 (2 ug/ml) and IL-4 (40 ng/ml) for three weeks. Fifty microliter of supernatant was used for IgE ELISA, following the manufacturer's instruction. The absorbance was read by ELISA reader at OD=450 nm.
IL-4 is a unique signal for B cells to produce IgE during the immunoglobulin class switch. To assess whether immunomodulatory compounds can regulated IgE synthesis, 1,3-dioxo-(2,6-dioxopiperidin-3-yl)-4-aminoisoindoline or 1-oxo-(2,6-dioxopiperidin-3-yl)-4-aminoisoindoline was incubated with human PBMCs in presence of CD40+IL-4 for three weeks. […] (FIGS. 11A and B).
Treatment of PBMC: 200 μl of 1×10^6/ml human PBMC were plated in 96 well plate, and the cells were pretreated with IMiDs at indicated concentrations (60, 6, 0.6, 0.06, 0.006, 0.0006 uM) for 30 minutes. Anti CD40 (#AHS4002, Biosource, 2 μg/ml) and IL-4 (#200-04, Pepro Tech, 40 ng/ml) were added to each well. Human PBMC in presence of IMiDs, anti CD40 and IL-4 were incubated for three weeks. Fifty microliters of supernatant was subjected to IgE ELISA.
IgE ELISA: The IgE ELISA Quantitation Kit was purchased from Bethyl Laboratories, Inc. (#E80-108). […] The ELISA plate was read at OD=450 nm in ELISA plate reader.

IC50 [2]: 0.1 to 0.3 µM
SMILES: Nc1cccc2c1C(=O)N(C1CCC(=O)NC1=O)C2=O (stereo not drawn) [1,3-dioxo-(2,6-dioxopiperidin-3-yl)-4-aminoisoindoline]
increase of CD40 expression ([1]; B cells treated with BAFF (FIG. 11F)): 60%
CD40 expression ([1]; B cells treated with BAFF or LPS, 1 μM, 3 days (FIG. 2A)): upregulated
